# Measurements from patent publication US20250057930A1, “ANAPLASTIC LYMPHOMA KINASE (ALK) CANCER VACCINES AND METHODS OF USE THEREOF” (The Children's Medical Center Corporation, priority 2022, published 2025).
# Ends that are not written are not given here.
# Experiments:
# [1] = tested on: ALK-specific CD8+ T cells; test: Vaccination of HLA B*07:02 transgenic mice, IFN-γ ELISPOT of splenocytes; format: in vivo, mouse; details: short and long peptide groups pooled, of 12 mice
# Text: Transgenic mice expressing the human HLA B*07:02 were vaccinated with different peptides containing the core epitopes […] (SEQ ID NO: 4) or […] (SEQ ID NO: 3): […] (SEQ ID NO: 4) (IVRshort), […] (SEQ ID NO: 1) (IVRlong), […] (SEQ ID NO: 3) (RPRshort), […] (SEQ ID NO: 2) (RPRlong). ALK-specific CD8+ T cells responses were detected in 12/12 (100%) mice vaccinated with either the IVRshort peptide or the IVRlong peptide and in 6/12 (50%) of mice vaccinated with either the PRPshort peptide or the RPRlong (FIG. 7D). Finally, ALK-specific CD8+ T cells responses were also detected in peripheral blood mononuclear cells (PBMCs) from 3/6 (50%) ALK+ NSCLC patients when stimulated with the […] (SEQ ID NO: 4) peptide but not with the […] (SEQ ID NO: 3) peptide (FIGS. 7E and 16B; Tables 6-7). Overall, four immunogenic ALK peptides in the context of the HLA A*02:01 and B*07:02 alleles were identified by mass spectrometry that can pave the way toward the design of a human ALK vaccine.
# The interferon-γ release enzyme-linked immune absorbent spot (ELISPOT) assay was performed using a commercial kit (Mouse IFN-γ ELISPOT, Mabtech, Stockholm, Sweden) according to the manufacturer's instructions. Briefly, the ELISPOT plate was prepared in sterile conditions and washed with sterile PBS (200 μL/well) for 5 times. Consecutively, the plate was conditioned with fresh DMEM medium (200 μL/well) contained 10% of the same fetal bovine serum used for the splenocytes suspension and incubated for 30 minutes at room temperature. After incubation, the medium was discarded and 2.5×10^5 splenocytes were plated in each well together with the appropriate stimuli. The plate was incubated over/night at 37° C. in humidified conditions with 5% C02. The day after, cells were discarded, and the plate was washed 5 times with PBS. Biotinylated detection anti-IFN-γ mAb (1 μg/mL) was added into the wells, followed by 2 hours of incubation at room temperature. […] All plates were evaluated by a computer assisted ELISPOT reader (CTL Immunospot analyzer, OH, USA).
# [2] = tested on: splenocytes isolated from mice vaccinated with ALK-DNA vaccine; test: IFN-γ ELISPOT screening of synthetic long peptides on splenocytes of ALK-DNA vaccinated mice; format: cell-based, mouse; details: ALK-DNA vaccine group, average ±SEM
# Experimental: Despite the known immunogenicity of the ALK protein, the data imply that ALK^+ mouse lung tumors induce an immune response insufficient to be activated by immune checkpoint inhibitor (ICI) treatment. Therefore, it was decided to directly investigate anti-ALK immune responses during ICI treatment by identifying the specific ALK peptides that induce T-cell mediated immune responses in mouse models. To identify the ALK-specific T-cell epitopes, an in vitro peptide screening was performed. A set of 21 overlapping synthetic long peptides (SLP), that encompassed the ALK cytoplasmic domain (FIG. 9A; Table 1), was incubated with splenocytes isolated from mice vaccinated with a vector encoding most of the ALK cytoplasmic domain (ALK-DNA vaccine) as previously described in Chiarle R, Martinengo C, Mastini C, Ambrogio C, D'Escamard V, Fori G, et al. The anaplastic lymphoma kinase is an effective oncoantigen for lymphoma vaccination.
# The interferon-γ release enzyme-linked immune absorbent spot (ELISPOT) assay was performed using a commercial kit (Mouse IFN-γ ELISPOT, Mabtech, Stockholm, Sweden) according to the manufacturer's instructions. Briefly, the ELISPOT plate was prepared in sterile conditions and washed with sterile PBS (200 μL/well) for 5 times. […] All plates were evaluated by a computer assisted ELISPOT reader (CTL Immunospot analyzer, OH, USA).
# [3] = Toxicity of the ALK vaccine in HLA-A*02:01 and HLA-B*07:02 transgenic mice; format: in vivo, mouse; details: for toxicity in vaccinated mice: HLA-A*02:01 (AMLDLLHVA) and HLA-B*07:02 (IVRCIGVSL) transgenic mice, CDN adjuvant; for CD8^+ T cells in the hypothalamus region / H&E and pan-HLA immunohistochemistry staining of the hypothalamus region / weight gain: mouse, in vivo
# Text: Transgenic mice (HLA-A*02:01 and HLA-1B*07:02) were vaccinated as shown in the schematic in FIG. 18A with either […] (SEQ ID NO: 7) or […] (SEQ ID NO: 4) peptides, respectively, and cyclic dinucleotides (CDN) adjuvant. Weight measurements were taken at discrete time points. Next, splenocytes were isolated and assayed and brain tissue was sectioned and imaged (FIG. 18C).
# [4] = tested on: CD8^+ T cells from NSCLC patients; test: IFN-γ ELISPOT of patient CD8^+ T cells expanded with ALK peptides; format: cell-based, human
# Experimental: Non-small cell lung cancer (NSCLC) patients, at the Dana-Farber Cancer Institute, consented to an institutional review board (IRB)-approved correlative research protocol that allowed for review of medical records and sample collection. Lung cancer mutation status was determined using standard CLIA-certified clinical assays in the Center for Advanced Molecular Diagnostics at Brigham and Women's Hospital. For each patient, 10 mL of whole blood was collected into K3-EDTA tubes, and peripheral blood mononuclear cells (PBMCs) (peripheral blood mononuclear cells) were isolated with Ficoll-Paque Plus density separation (GE Healthcare), and consequently frozen until use.
# Frozen PBMCs from patients with NSCLC were thawed, resuspended in cold RPMI containing 3% of human AB heat-inactivated serum (Sigma Aldrich), and cultured in a T-175 culture flask for 50 min. at 37° C. in 5% C02 to induce the attachment of CD14^+ monocytes to the plastic. The remaining floating PBMCs were removed with gentle washes of PBS and warm media. Monocytes were then cultured in RPMI containing 3% of human AB heat-inactivated serum, 2% Penicillin/Streptomycin, 1% Glutamine, and 25 nM HEPES with GM-CSF (120 ng/mL, Preprotech) and IL-4 (70 ng/mL, Preprotech). Fresh GM_CSF and IL-4 were added on days 3 and 5. On day 6, Poly I:C (30 μg/mL, Sigma Aldrich) was added for 24 hours to induce DCs maturation.
# B cells were expanded using the CD40 system (68,69). Briefly, NIH-3T3-CD40L cells were irradiated (9600 rads) and plated in a 6 well plate (400.000 cells/well) without Gentamycin. The following day, 8×10^6 PBMCs were resuspended in 4 mL of IMDM (Glutamine, Hepes, Gibco) containing 10% human AB serum heat-inactivated (Sigma Aldrich), Transferrin (50 μg/ml, Lonza), Insulin (5 μg/ml, BioXtra), Cyclosporine A (5.5×10^−7M, Sigma Aldrich), IL-4 (2 ng/ml, Preprotech) and Gentamycin (15 μg/ml, Gibco), and co-cultured with the irradiated NIH-3T3-CD40L for 5 days. PBMCs were then counted and cultured at the same concentration together with newly irradiated NIH-3T3-CD40L for 3 more days. After 12 days 95% of the cells were CD19^+ and could be expanded similarly every 3-4 days at a concentration of 10^6/mL. B cells were always used after 15 days of culture.
# CD8^+ T cells were purified using magnetic beads (CD8^+ T cell isolation Kit, Miltenyi) and co-cultured with DCs (20:1; around 10^6 CD8^+ T cells:50.000 DCs) in AIM V media (Gibco) with 5% human AB heat-inactivated serum (Sigma Aldrich), 20 units/mL IL-2 (Preprotech) and 10 ng/mL IL-7 (Preprotech). Before co-culture, DCs were pulsed with the 10 μg/mL of the desired peptide in AIM V media without serum at 37° C. in 5% CO2. Fresh IL-2 and IL-7 were added every 3-4 days. After 7 days, 3-4 million PBMCs CD8^+ T cells were co-cultured with peptide-pulsed DCs and cytokines (20-40:1 ratio). 3rd and 4th stimulation stimulations were done using 4-5 million CD8^+ T cells and peptide-pulsed irradiated B cells (ratio 4:1, 3000 rads) and fresh IL2 and IL7 (days 14 and 21). CD8^+ T-cell responses were then evaluated in an IFN-γ-ELISPOT assay (Mabtech) using peptide-pulsed B cells (1:1 ratio) as target cells. CD8^+ T cells were purified the day before the ELISPOT assay and rested overnight in media without cytokines. The ELISPOT was performed with FBS heat inactivated as recommended by the manufacturer. When the human material was limited, PBMCs or B0 cells were used in the first round of stimulation.
# [5] = tested on: ALK-rearranged (ALK^+) NSCLC; details: first-line treatment; cited from earlier work
# [6] = tested on: Ad-EA mice (mEml4-Alk rearranged lung tumor); test: Lung tumor volume by MRI and survival in Ad-EA mice; format: in vivo, mouse; details: crizotinib 40 mg/kg or lorlatinib 2 mg/kg, MRI
# Text: EML4-ALK transgenic (Tg) mice, which express the human EML4-ALK (E13;A20, human variant 1) driven by the SP-C promoter (henceforth referred as hEML4-ALK Tg mice), and BALB/c mice infected intratracheally with adenovirus carrying the CRISPR/Cas9 system to induce in vivo the Eml4-Alk rearrangement (E14;A20, mouse variant 1) (henceforth referred as Ad-EA mice). […] In these models, magnetic resonance imaging (MRI) (FIG. 1B) allowed precise cohort stratification and tumor follow-up.
# Anatomical T2-weighted coronal images were acquired with a respiratory-triggered multislice fast spin echo RARE sequence (TR=4 s, TE=4.5 ms, Rare Factor (RF)=16, FOV=30 mm^2, Matrix=256×256, slices=16-20, slice thickness=1 mm, 2 averages, providing an in-plane spatial resolution of 117 μm) with a 7T MRI (Bruker Advance III, Ettlingen, Germany) scanner equipped with a quadrature 1H coil. Animals were anesthetized by intraperitoneal injection of a combination of ROMPUN® (Bayer, 5 mg/kg) and ZOLETIL 100® (Laboratoires Virbac, 20 mg/kg); breathing was monitored during acquisition of the MR images with a respiratory sensor (SA Instruments, Inc.). Tumor volumes and numbers of masses calculations were performed by manual segmentation (slice by slice contouring) with ITK-SNAP software (www.itksnap.org).
# Syngeneic mice models transplanted with tumor cells were treated intraperitoneally with 200 μg of anti-PD-1 and/or anti-CTLA-4 (clone 9D9, Bioxcell), on days 3, 6, and 9 post-tumor transplantation (3 injections/per mouse).
compound,measurement,setting,value
GGDLKSFLRETRPRPSQPSSLAM [RPRlong],mice with ALK-specific CD8+ T cells responses detected,[1],50%
LTANMKEVPLFRLRHFPCGNVNYGYQQQGLPLEAAT [SLP20],number of IFN-γ-spots,[2],Weaker responses
GYQQQGLPLEAATAPGAGHYEDTILKSKNSMNQPGP [SLP21],number of IFN-γ-spots,[2],Weaker responses
FNHQNIVRCIGVSL [IVRlong],mice with ALK-specific CD8+ T cells responses detected,[1],100%
IVRCIGVSL,toxicity in vaccinated mice,[3],no detectable toxicity
same,CD8^+ T cells in the hypothalamus region,[3],Not a significant amount
same,H&E and pan-HLA immunohistochemistry staining of the hypothalamus region,[3],healthy tissue
same,weight gain,[3],the same as the control mice
RPRPSQPSSL,Average Spots Forming Units (2 wells)/20 000 CD8^+ T cells,"[4]; Patient 1 (ALK), IVRCIGVSL expanded",5.5 Spots Forming Units/20 000 CD8
same,Average Spots Forming Units (2 wells)/20 000 CD8^+ T cells,"[4]; Patient 1 (ALK), RPRPSQPSSL expanded",4.5 Spots Forming Units/20 000 CD8
same,Average Spots Forming Units (2 wells)/20 000 CD8^+ T cells,"[4]; Patient 2 (ALK), IVRCIGVSL expanded",27.5 Spots Forming Units/20 000 CD8
same,Average Spots Forming Units (2 wells)/20 000 CD8^+ T cells,"[4]; Patient 2 (ALK), RPRPSQPSSL expanded",0 Spots Forming Units/20 000 CD8
same,Average Spots Forming Units (2 wells)/20 000 CD8^+ T cells,"[4]; Patient 3 (ALK), IVRCIGVSL expanded",6.5 Spots Forming Units/20 000 CD8
same,Average Spots Forming Units (2 wells)/20 000 CD8^+ T cells,"[4]; Patient 3 (ALK), RPRPSQPSSL expanded",3 Spots Forming Units/20 000 CD8
same,Average Spots Forming Units (2 wells)/20 000 CD8^+ T cells,"[4]; Patient 4 (ALK), RPRPSQPSSL expanded",2 Spots Forming Units/20 000 CD8
same,Average Spots Forming Units (2 wells)/20 000 CD8^+ T cells,"[4]; Patient 5 (KRASG12V), RPRPSQPSSL expanded",1 Spots Forming Units/20 000 CD8
same,Average Spots Forming Units (2 wells)/20 000 CD8^+ T cells,"[4]; Patient 6 (EGFR del exon19), IVRCIGVSL expanded",1.5 Spots Forming Units/20 000 CD8
same,Average Spots Forming Units (2 wells)/20 000 CD8^+ T cells,"[4]; Patient 6 (EGFR del exon19), RPRPSQPSSL expanded",10 Spots Forming Units/20 000 CD8
same,Average Spots Forming Units (2 wells)/20 000 CD8^+ T cells,"[4]; Patient 7 (KRASG12D), IVRCIGVSL expanded",1 Spots Forming Units/20 000 CD8
same,Average Spots Forming Units (2 wells)/20 000 CD8^+ T cells,"[4]; Patient 7 (KRASG12D), RPRPSQPSSL expanded",3 Spots Forming Units/20 000 CD8
same,Average Spots Forming Units (2 wells)/20 000 CD8^+ T cells,"[4]; Patient 8 (EGFR del exon19), IVRCIGVSL expanded",2 Spots Forming Units/20 000 CD8
same,Average Spots Forming Units (2 wells)/20 000 CD8^+ T cells,"[4]; Patient 8 (EGFR del exon19), RPRPSQPSSL expanded",10 Spots Forming Units/20 000 CD8
same,mice with ALK-specific CD8+ T cells responses detected,[1],50%
COc1cc(N2CCC(N3CCN(C)CC3)CC2)ccc1Nc1ncc(Cl)c(Nc2ccccc2P(C)(C)=O)n1 [brigatinib],time to disease progression in most patients,[5],three
C[C@@H](Oc1cc(-c2cnn(C3CCNCC3)c2)cnc1N)c1c(Cl)ccc(F)c1Cl [crizotinib],tumor response at the end of treatment,[6],stabilized tumors
AMLDLLHVA,toxicity in vaccinated mice,[3],no detectable toxicity
same,CD8^+ T cells in the hypothalamus region,[3],Not a significant amount
same,H&E and pan-HLA immunohistochemistry staining of the hypothalamus region,[3],healthy tissue
same,weight gain,[3],the same as the control mice
